Earlier results, collected in patent publication US6355270B1, “Particles for oral delivery of peptides and proteins” (The Regents of the University of California, priority 1999, dated 2002).
Like-named read-outs stand apart in the source and are kept apart here.

Tests used:
[1] = system: intestinal tight junctions; conditions: rabbit intestine, in vitro, reversible
[2] = system: intestinal tight junctions; conditions: in vivo

Substance: Zonula occludens toxin [Zot]
- increase of intestinal permeability to insulin ([1]; P=0.034): 72%
- increase of intestinal permeability to immunoglobulins ([1]; P=0.04): 52%
- increase of insulin absorption ([2]; both rabbit jejunum and ileum): 10 fold
- change of insulin absorption ([2]; rabbit colon): no substantial changes
- increase of IgG absorption ([2]; rabbit ileum): six-fold
- increase of IgG absorption ([2]; rabbit jejunum): twofold
- survival time (diabetic rats; diabetic animals chronically treated with oral insulin+Zot, versus parenterally treated rats): comparable to that observed in parenterally treated rats
- lowering of serum glucose concentrations (diabetic rats; diabetic rats, oral insulin co-administered with Zot, versus parenteral injection of insulin): comparable to those obtained after parenteral injection of the hormone
